This note sets out measurements from US6395737B1, “Malonic acid derivatives, processes for their preparation, for their use and pharmaceutical compositions containing them” (Aventis Pharma Deutschland GmbH, priority 1999, dated 2002).

Usually pKi stands for −log10 of the Ki, conventionally taken in molar units. A higher pKi goes with a small Ki.

pKi: −log10 of the molar value. Structures can show the parent of a compound that is named as a salt.

factor Xa, sequence (P00742 235-488 limits assumed): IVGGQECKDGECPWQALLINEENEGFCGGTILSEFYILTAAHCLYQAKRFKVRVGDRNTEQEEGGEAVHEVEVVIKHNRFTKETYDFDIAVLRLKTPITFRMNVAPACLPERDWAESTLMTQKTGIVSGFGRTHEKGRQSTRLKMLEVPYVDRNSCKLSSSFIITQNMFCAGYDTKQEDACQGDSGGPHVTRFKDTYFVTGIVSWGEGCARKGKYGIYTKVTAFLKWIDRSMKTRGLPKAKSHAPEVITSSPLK
factor Xa, sequence (P00742 41-179 partner limits assumed): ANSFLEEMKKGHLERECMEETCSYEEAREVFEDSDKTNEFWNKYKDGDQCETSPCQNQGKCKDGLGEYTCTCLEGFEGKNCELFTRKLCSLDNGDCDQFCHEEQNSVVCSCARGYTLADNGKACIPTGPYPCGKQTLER

The assay concerns the target factor Xa (Homo sapiens, UniProt P00742). The assay can be described thus: In vitro Factor Xa assay (Test 1a), chromogenic substrate S-2765. Also on record: purchased Enzyme Research Laboratories, Inc; South Bend, Ind. Conditions: Factor Xa inhibitory activity; Ki from IC50 corrected for substrate competition; 0.5 nM enzyme, 140 μM S-2765, 25° C. The format is biochemical. From the text:
The ability of a compound of formula I to inhibit factor Xa, thrombin, plasmin, elastase and trypsin may be assessed by determining the concentration of compound of formula I that inhibits enzyme activity by 50% (IC50). Purified enzymes are used in chromogenic assays. To determine the inhibition constant, the IC50 value is corrected for competition with substrate using the formula:
Ki=IC50×(1/{1+((substrate concentration)/substrate Km)})
where Km is the Michaelis-Menten-constant (Y.-C. Chen and W.H. Prusoff, Biochem. Pharmacol. 22: […] (1973), which is incorporated herein by reference).
TBS-PEG buffer (50 mM Tris-Cl, pH 7.8, 200 mM NaCl, 0.05% (w/v) PEG-8000, 0.02% (w/v) NaN3) is used for this assay. The IC50 is determined by combining in appropriate wells of a Costar half-area microtiter plate 25 μl human factor Xa (Enzyme Research Laboratories, Inc.; South Bend, Ind.) in TBS-PEG; 40 μl 10% (v/v) DMSO in TBS-PEG (uninhibited control) or various concentrations of the compound to be tested diluted in 10% (v/v) DMSO in TBS-PEG; and substrate S-2765 (N-benzyloxycarbonyl-D-Arg-Gly-L-Arg-p-nitroanilide; Kabi Pharmacia, Inc.; Franklin Ohio) in TBS-PEG.
The assays are performed by pre-incubating the compound of formula I plus enzyme for 10 min, then the assay is initiated by adding substrate to obtain a final volume of 100 μl. The initial velocity of chromogenic substrate hydrolysis is measured by the change in absorbance at 405 nm using a Bio-tek Instruments kinetic plate reader (Ceres UV900HDi) at 25° C. during the linear portion of the time course (usually 1.5 min after addition of substrate). The concentration of inhibitor that causes a 50% decrease in the rate of substrate hydrolysis is predicted by linear regression after plotting the relative rates of hydrolysis (compared to the uninhibited control) versus the log of the compound of formula I concentration. The enzyme concentration is 0.5 nM and substrate concentration is 140 μM.
Compound `CN(C)C(=O)C(Cc1ccc(C(=N)N)cc1)C(=O)N[C@H](C(=O)NCc1ccc(C(=N)N)cc1)C1CCCCC1` (mixture of isomers) [Example 4, 2-(R,S)-(4-Carbamimidoyl-benzyl)-N-[(4-carbamimidoyl-benzylcarbamoyl)-(S)-cyclohexyl-methyl]-N′,N′-dimethyl-malonamide Hydrochloric Acid Salt] showed a pKi of 8.22.

Consider `N=C(N)NCCC[C@H](NC(=O)[C@@H](NC(=O)C(Cc1ccc(C(=N)N)cc1)C(=O)N1CCOCC1)c1ccccc1)C(N)=O` (mixture of isomers) [Example 23, 2-(S)-{2-(S)-[2-(R,S)-(4-Carbamimidoyl-benzyl)-3-morpholin-4-yl-3-oxo-propionyl-amino]-2-phenyl-acetylamino}-5-guanidino-pentanoic acid amide trifluoroacetic acid salt], for which the pKi is 7.89. As to `CC(C)(C)[C@H](NC(=O)C(Cc1ccc(C(=N)N)cc1)C(=O)N1CCOCC1)C(=O)N[C@@H](CCCNC(=N)N)C(N)=O` (mixture of isomers) [Example 40, 2-(S)-{2-(S)-[2-(R,S)-(4-Carbamimidoyl-benzyl)-3-morpholin-4-yl-3-oxo-propionyl-amino]-3,3-dimethyl-butyrylamino}-5-guanidino-pentanoic acid amide trifluoroacetic acid salt], the negative-log Ki (pKi) was 6.30. Next, `N=C(N)NCCC[C@H](NC(=O)[C@@H](NC(=O)C(Cc1ccc(C(=N)N)cc1)C(=O)N1CCOCC1)C1CCCCC1)C(N)=O` (mixture of isomers) [Example 41, 2-(S)-{2-(S)-[2-(R,S)-(4-Carbamimidoyl-benzyl)-3-morpholin-4-yl-3-oxo-propionyl-amino]-2-cyclohexyl-acetylamino}-5-guanidino-pentanoic acid amide trifluoroacetic acid salt]: 8.21. As for `N=C(N)NCCC[C@H](NC(=O)[C@H](Cc1ccccc1)NC(=O)C(Cc1ccc(C(=N)N)cc1)C(=O)N1CCOCC1)C(N)=O` (mixture of isomers) [Example 43, 2-(S)-{2-(S)-[2-(R,S)-(4-Carbamimidoyl-benzyl)-3-morpholin-4-yl-3-oxo-propionyl-amino]-3-phenyl-propionylamino}-5-guanidino-pentanoic acid amide trisfluoroacetic acid salt], the pKi is 6.72. This pKi lies 1.49 log units lower than the previous one. Consider `CN(C)C(=O)C(Cc1ccc(C(=N)N)cc1)C(=O)N[C@H](C(=O)N[C@@H](CCCNC(=N)N)C(=O)N1CCN(S(=O)(=O)c2ccc3ccc(Cl)cc3c2)CC1)C1CCCCC1` (mixture of isomers) [Example 45, 2-(R,S)-(4-Carbamimidoyl-benzyl)-N-({1-(S)-[4-(7-chloro-naphthalene-2-sulfonyl)-piperazine-1-carbonyl]-4-guanidino-butylcarbamoyl}-(S)-cyclohexyl-methyl)-N′,N′dimethyl-malonamide hydrochloric acid salt], for which the pKi was 7.92. In turn, `CN(C)C(=O)C(Cc1ccc(C(=N)N)cc1)C(=O)N[C@H](C(=O)NCC1CCNCC1)C1CCCCC1` (mixture of isomers) [Example 47, 2-(R,S)-(4-Carbamimidoyl-benzyl)-N-{(S)-cyclohexyl-[(piperidin-4-ylmethyl)-carbamoyl]-methyl}-N′,N′-dimethyl-malonamide hydrochloric acid salt] gave a pKi of 6.34.

Compound `CN(C)C(=O)C(Cc1ccc(C(=N)N)cc1)C(=O)N[C@H](C(=O)NCCc1ccc(Cl)c(Cl)c1)C1CCCCC1` (mixture of isomers) [Example 59, 2-(R,S)-(4-Carbamimidoyl-benzyl)-N-{(S)-cyclohexyl-[2-(3,4-dichloro-phenyl)-ethylcarbamoyl]-methyl}-N′,N′-dimethyl-malonamide acetic acid salt] had a pKi of 5.28. Against the preceding compound, the pKi is 1.06 log units lower.

For `CN(C)C(=O)C(Cc1ccc(C(=N)N)cc1)C(=O)N[C@H](C(=O)NC(Cc1ccc(C(=N)N)cc1)C(N)=O)C1CCCCC1` (mixture of isomers) [Example 87, 2-(R,S)-(4-Carbamimidoyl-benzyl)-N-{(S)-[2-(4-carbamimidoyl-phenyl)-1-carbamoyl-ethylcarbamoyl]-cyclohexyl-methyl}N′,N′-dimethyl-malonamide acetic acid salt], the pKi is 6.77. The compound `CN(C)C(=O)C(Cc1ccc(C(=N)N)cc1)C(=O)N[C@H](C(=O)NCCCCNC(=N)N)C1CCCCC1` (mixture of isomers) [Example 88, 2-(R,S)-(4-Carbamimidoyl-benzyl)-N-[(S)-cyclohexyl-(4-guanidino-butyl-carbamoyl)-methyl]-N′,N′-dimethyl-malonamide sulfuric acid salt] had a pKi of 7.27. Against the preceding compound, the pKi is 0.50 log units higher. The compound `CN(C)C(=O)C(Cc1ccc(C(=N)N)cc1)C(=O)N[C@H](C(=O)NC(C(=O)N1CCCC1)c1ccc(NC(=N)N)cc1)C1CCCCC1` (mixture of isomers) [Example 96, 2-(R,S)-(4-Carbamimidoyl-benzyl)-N-{(S)-cyclohexyl-[1-(4-guanidino-phenyl)-2-oxo-2-pyrrolidin-1-yl-ethylcarbamoyl]-methyl}-N′,N′-dimethyl-malonamide hydrochloric acid salt] gave a pKi of 6.02. In the case of `N=C(N)NCCCC(NC(=O)C(NC(=O)C(Cc1ccc(C(=N)N)cc1)C(=O)N1CCCCC1)C1CCCCC1)C(N)=O` (single isomer, unassigned; less polar) [Example 27] it was 8.46; in that of `N=C(N)NCCC[C@H](NC(=O)[C@@H](NC(=O)C(Cc1ccc(C(=N)N)cc1)C(=O)N1CCCC1C(=O)O)C1CCCCC1)C(N)=O` (single isomer, unassigned; less polar) [Example 35], 7.08; in that of `N=C(N)c1ccc(CNC(=O)[C@@H](NC(=O)C(Cc2ccc(C(=N)N)cc2)C(=O)NCc2ccccc2)C2CCCCC2)cc1` (single isomer, unassigned; less polar) [Example 101], 7.43. `CN(Cc1ccccc1)C(=O)[C@@H](Cc1ccc(C(=N)N)cc1)C(=O)N[C@H](C(=O)NCC1CCN(C(=N)N)CC1)C1CCCCC1` (single isomer, unassigned; less polar) [Example 112]: the pKi was 9.00.

Compound `CCC(=N)N1CCC(CNC(=O)C(NC(=O)C(Cc2ccc(C(=N)N)cc2)C(=O)N(C)Cc2ccccc2)C2CCCCC2)CC1` (single isomer, unassigned; less polar) [Example 126] gave a pKi of 7.46. As for `N=C(N)NCCCC(NC(=O)C(NC(=O)C(Cc1ccc(C(=N)N)cc1)C(=O)N1CCCCC1)C1CCCCC1)C(N)=O` (single isomer, unassigned; more polar) [Example 28], the pKi was 5.70. For the compound `CCOC(=O)C(Cc1cccc2ccccc12)NC(=O)[C@@H](NC(=O)C(Cc1ccc(C(=N)N)cc1)C(=O)N(C)Cc1ccccc1)C1CCCCC1` (single isomer, unassigned; more polar) [Example 107], the pKi was 5.56. On to `CCC(=N)N1CCC(CNC(=O)C(NC(=O)C(Cc2ccc(C(=N)N)cc2)C(=O)N(C)Cc2ccccc2)C2CCCCC2)CC1` (single isomer, unassigned; more polar) [Example 125], for which the pKi is 8.22. This pKi lies 2.66 log units higher than the previous one.

Compound `CCCC[C@H](NC(=O)C(Cc1ccc(C(=N)N)cc1)C(=O)N1CCOCC1)C(=O)N[C@@H](CCCNC(=N)N)C(N)=O` (stereo partly drawn) [Example 16, 2-(S)-[2-(R,S)-(4-Carbamimidoyl-benzyl)-3-morpholin-4-yl-3-oxo-propionyl-amino]-hexanoic acid(1-(S)-carbamoyl-4-guanidino-butyl)-amide trifluoroacetic acid salt] gave a pKi of 7.59. In turn, `CN(C)C(=O)C(Cc1ccc(C(=N)N)cc1)C(=O)N[C@H](C(=O)NCc1cccc(CN)c1)C1CCCCC1` (stereo partly drawn) [Example 63, N-[((S)-3-Aminomethyl-benzylcarbamoyl)-cyclohexyl-methyl]-2-(R,S)-(4-carbamimidoyl-benzyl)-N′,N′-dimethyl-malonamide trifluoroacetic acid salt] gave a pKi of 5.63. The compound `CC(=O)NCc1cccc(CNC(=O)[C@@H](NC(=O)C(Cc2ccc(C(=N)N)cc2)C(=O)N(C)C)C2CCCCC2)c1` (stereo partly drawn) [Example 67, N-{[(S)-3-(Acetylamino-methyl)-benzylcarbamoyl]-cyclohexyl-methyl}-2-(R,S)-(4-carbamimidoyl-benzyl)-N′,N′-dimethyl-malonamide trifluoroacetic acid salt] had a pKi of 6.59. As to `CN(C)C(=O)C(Cc1ccc(C(=N)N)cc1)C(=O)NC(C(=O)NCc1cccc(C(N)=O)c1)C1CCCCC1` [Example 69, 2-(R,S)-(4-Carbamimidoyl-benzyl)-N-[((S)-3-carbamoyl-benzylcarbamoyl)-cyclohexyl-methyl]-N′,N′-dimethyl-malonamide hydrochloric acid salt], the pKi was 6.11.
